Data published in patent publication US12071602B2, “Inductively coupled capacitor wireless sensor system for rapid antimicrobial susceptibility testing” (SYRACUSE UNIVERSITY, priority 2021, dated 2024).

System: E. coli MG1655
Experiment: LC sensor relative permittivity growth monitoring (AST), ampicillin sensitive strain
Assay type: cell-based
Conditions: 100 μg/mL ampicillin at the time of inoculation, cultured for 4 hours; observed within 30 mins; FIG. 12

CC1(C)S[C@@H]2[C@H](NC(=O)[C@H](N)c3ccccc3)C(=O)N2[C@H]1C(=O)O [ampicillin]
growth in presence of ampicillin (relative permittivity): inhibited
